Results reported in ChEMBL document CHEMBL1147416, “Aza-bicyclic amino acid sulfonamides as alpha(4)beta(1)/alpha(4)beta(7) integrin antagonists” (Bioorg Med Chem Lett, 2004).

Columns and labels:
[1] = In vitro inhibition of binding of integrin alpha4-beta7 to immobilized MAdCAM-1 expressed on epithelial cell surface.; type: functional, cell-based
[2] = Inhibition of integrin alpha4-beta7 binding to immobilized MAdCAM-1 (mucosal addressin cell adhesion molecule-1) of epithelial cells at 5 uM; type: functional
Integrin alpha-4/beta-1 = Integrin alpha-4/beta-1 (Homo sapiens, UniProt P05556+P13612); experiment: In vitro inhibition of binding of integrin alpha4-beta1 to immobilized VCAM-1 expressed on endothelial cell surface.; type: functional, cell-based
Integrin alpha-4/beta-1, sequence (P05556 whole entry): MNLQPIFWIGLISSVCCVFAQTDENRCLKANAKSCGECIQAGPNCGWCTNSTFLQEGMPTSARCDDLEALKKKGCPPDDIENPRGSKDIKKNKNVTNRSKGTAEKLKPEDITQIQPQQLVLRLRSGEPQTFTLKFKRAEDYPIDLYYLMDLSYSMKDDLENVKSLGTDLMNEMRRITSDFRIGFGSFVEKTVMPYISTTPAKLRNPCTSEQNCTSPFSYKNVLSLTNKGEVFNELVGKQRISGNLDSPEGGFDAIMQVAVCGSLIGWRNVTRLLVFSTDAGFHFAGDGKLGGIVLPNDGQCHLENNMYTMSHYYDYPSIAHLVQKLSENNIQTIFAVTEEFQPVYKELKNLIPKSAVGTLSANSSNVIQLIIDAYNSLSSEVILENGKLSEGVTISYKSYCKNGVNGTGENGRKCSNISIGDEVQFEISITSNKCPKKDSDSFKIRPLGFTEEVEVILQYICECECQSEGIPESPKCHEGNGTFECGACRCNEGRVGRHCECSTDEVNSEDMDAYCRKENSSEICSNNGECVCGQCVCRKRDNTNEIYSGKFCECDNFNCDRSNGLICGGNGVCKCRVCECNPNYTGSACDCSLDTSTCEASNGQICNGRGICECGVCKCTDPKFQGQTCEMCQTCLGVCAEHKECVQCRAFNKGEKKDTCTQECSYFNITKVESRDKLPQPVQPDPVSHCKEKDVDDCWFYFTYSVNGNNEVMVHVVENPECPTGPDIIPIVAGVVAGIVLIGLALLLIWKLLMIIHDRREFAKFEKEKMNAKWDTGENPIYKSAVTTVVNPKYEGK
Integrin alpha-4/beta-1, sequence (P13612 whole entry): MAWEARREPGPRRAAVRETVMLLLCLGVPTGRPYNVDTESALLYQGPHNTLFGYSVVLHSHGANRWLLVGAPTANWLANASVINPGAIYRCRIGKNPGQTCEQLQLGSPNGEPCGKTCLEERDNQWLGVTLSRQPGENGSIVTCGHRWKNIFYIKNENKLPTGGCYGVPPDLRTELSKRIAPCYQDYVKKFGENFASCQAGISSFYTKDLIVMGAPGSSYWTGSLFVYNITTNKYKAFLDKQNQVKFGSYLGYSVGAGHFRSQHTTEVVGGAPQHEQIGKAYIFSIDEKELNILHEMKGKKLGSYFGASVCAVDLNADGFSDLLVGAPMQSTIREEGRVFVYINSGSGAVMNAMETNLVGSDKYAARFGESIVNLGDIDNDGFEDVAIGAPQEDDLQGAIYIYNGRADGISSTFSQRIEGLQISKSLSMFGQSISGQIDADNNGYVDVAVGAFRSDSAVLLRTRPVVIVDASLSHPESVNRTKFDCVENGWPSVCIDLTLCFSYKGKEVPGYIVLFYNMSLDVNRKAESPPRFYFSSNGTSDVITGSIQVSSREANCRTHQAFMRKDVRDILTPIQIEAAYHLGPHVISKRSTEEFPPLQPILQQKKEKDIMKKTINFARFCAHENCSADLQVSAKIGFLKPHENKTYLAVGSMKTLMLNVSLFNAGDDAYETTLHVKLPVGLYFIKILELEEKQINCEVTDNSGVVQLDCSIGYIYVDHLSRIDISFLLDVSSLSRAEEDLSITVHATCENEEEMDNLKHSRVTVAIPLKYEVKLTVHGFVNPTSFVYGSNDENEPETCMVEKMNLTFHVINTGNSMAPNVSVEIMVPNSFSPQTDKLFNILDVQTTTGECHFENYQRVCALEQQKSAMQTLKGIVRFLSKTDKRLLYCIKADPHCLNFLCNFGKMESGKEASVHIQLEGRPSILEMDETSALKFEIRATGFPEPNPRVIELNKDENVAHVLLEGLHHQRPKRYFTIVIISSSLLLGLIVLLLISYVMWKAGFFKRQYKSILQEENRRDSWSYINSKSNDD

SMILES | IC50 [1] [nM] | IC50 (Integrin alpha-4/beta-1) [nM] | inhibition at 5 µM [2] [%]
Cc1ccc(S(=O)(=O)N2C3CCC(CC3)C2C(=O)N[C@@H](Cc2ccc(NC(=O)Cc3c(Cl)cccc3Cl)cc2)C(=O)O)cc1 (some centres undefined) | – | – | 28
O=C(Nc1ccc(C[C@H](NC(=O)[C@@H]2C3CCC(CC3)N2S(=O)(=O)c2cccs2)C(=O)O)cc1)c1c(Cl)cccc1Cl | 62 | 30 | –
O=C(Nc1ccc(C[C@H](NC(=O)C2C3CCC(CC3)N2S(=O)(=O)c2c(Cl)cccc2Cl)C(=O)O)cc1)c1cc(Cl)nc(Cl)c1 (some centres undefined) | 11 | 105 | –
COc1cccc(OC)c1-c1ccc(C[C@H](NC(=O)[C@@H]2C3CCC(CC3)N2S(=O)(=O)c2ccccc2)C(=O)O)cc1 | 90 | – | –
Cc1ccc(S(=O)(=O)N2C3CCC(CC3)C2C(=O)N[C@@H](Cc2ccc(NC(=O)Nc3c(Cl)cccc3Cl)cc2)C(=O)O)cc1 (some centres undefined) | – | 1600 | –
O=C(Nc1ccc(C[C@H](NC(=O)[C@@H]2C3CCC(CC3)N2S(=O)(=O)c2cccc3ccncc23)C(=O)O)cc1)c1cc(Cl)nc(Cl)c1 | 22 | 12 | –
O=C(Nc1ccc(C[C@H](NC(=O)C2C3CCC(CC3)N2S(=O)(=O)c2ccccc2C(F)(F)F)C(=O)O)cc1)c1cc(Cl)nc(Cl)c1 (some centres undefined) | 102 | 81 | –
Cc1ccc(S(=O)(=O)N2C3CCC(CC3)C2C(=O)N[C@@H](Cc2ccc(NC(=O)c3c(Cl)cc(Cl)cc3Cl)cc2)C(=O)O)cc1 (some centres undefined) | 430 | – | –
O=C(Nc1ccc(C[C@H](NC(=O)[C@@H]2C3CCC(CC3)N2S(=O)(=O)c2cccc3cccnc23)C(=O)O)cc1)c1cc(Cl)nc(Cl)c1 | 151 | 150 | –
Cc1ccc(S(=O)(=O)N2C3CCC(CC3)C2C(=O)N[C@@H](Cc2ccc(NC(=O)c3ccccc3)cc2)C(=O)O)cc1 (some centres undefined) | – | – | 30
O=C(Nc1ccc(C[C@H](NC(=O)[C@@H]2C3CCC(CC3)N2S(=O)(=O)c2cccs2)C(=O)O)cc1)c1cc(Cl)nc(Cl)c1 | 32 | 5 | –
O=C(Nc1ccc(C[C@H](NC(=O)C2C3CCC(CC3)N2S(=O)(=O)c2cc(Cl)c(Cl)s2)C(=O)O)cc1)c1cc(Cl)nc(Cl)c1 (some centres undefined) | 14 | 69 | –

More lines, main results first:

IC50 [1] [nM] | IC50 (Integrin alpha-4/beta-1) [nM] | SMILES | inhibition at 5 µM [2] [%]
312 | – | O=C(O)[C@H](Cc1ccc(N2C(=O)c3ccccc3C2=O)cc1)NC(=O)[C@@H]1C2CCC(CC2)N1S(=O)(=O)c1ccccc1 | –
175 | 36 | O=C(Nc1ccc(C[C@H](NC(=O)[C@@H]2C3CCC(CC3)N2S(=O)(=O)c2ccccc2)C(=O)O)cc1)c1ccncc1 | –
– | 1600 | O=C(Nc1ccc(C[C@H](NC(=O)[C@H]2C3CCC(CC3)N2S(=O)(=O)c2ccccc2)C(=O)O)cc1)c1c(Cl)cccc1Cl | –
119 | 30 | COc1cccc(OC)c1-c1ccc(C[C@H](NC(=O)[C@@H]2C[C@@H](c3ccccc3)CN2S(=O)(=O)c2ccccc2)C(=O)O)cc1 | –
94 | 19 | O=C(Nc1ccc(C[C@H](NC(=O)[C@@H]2C3CCC(CC3)N2S(=O)(=O)c2ccccc2)C(=O)O)cc1)c1c(Cl)cccc1Cl | –
90 | 410 | CC(=O)N1CSC[C@@H]1C(=O)N[C@@H](Cc1ccc(OCc2c(Cl)cccc2Cl)cc1)C(=O)O | –
64 | 11 | O=C(Nc1ccc(C[C@H](NC(=O)C2C3CCC(CC3)N2S(=O)(=O)c2ccc(Cl)s2)C(=O)O)cc1)c1cc(Cl)nc(Cl)c1 (some centres undefined) | –
13 | 12 | O=C(Nc1ccc(C[C@H](NC(=O)[C@@H]2C3CCC(CC3)N2S(=O)(=O)c2ccccc2)C(=O)O)cc1)c1cc(Cl)nc(Cl)c1 | –
320 | – | Cc1ccc(S(=O)(=O)N2C3CCC(CC3)C2C(=O)N[C@@H](Cc2ccc(NC(=O)c3c(Cl)cccc3Cl)cc2)C(=O)O)cc1 (some centres undefined) | –
